Biological target: T1, LHRH rat pituitary receptor (Rattus norvegicus, UniProt P30969)
T1 construct: from tissue; host or cells: rat pituitary
T1 sequence (P30969 1-327): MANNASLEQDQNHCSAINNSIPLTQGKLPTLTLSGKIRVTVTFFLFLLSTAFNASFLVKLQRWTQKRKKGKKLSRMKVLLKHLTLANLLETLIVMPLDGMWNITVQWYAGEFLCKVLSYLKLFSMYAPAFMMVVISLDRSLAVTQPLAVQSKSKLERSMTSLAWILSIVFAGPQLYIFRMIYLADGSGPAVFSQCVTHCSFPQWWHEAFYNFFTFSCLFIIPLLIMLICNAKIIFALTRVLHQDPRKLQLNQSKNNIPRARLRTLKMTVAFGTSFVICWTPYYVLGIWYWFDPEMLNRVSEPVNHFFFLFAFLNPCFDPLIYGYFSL
Test: LHRH rat pituitary receptor binding (pKI)
Conditions: negative logarithm of the equilibrium dissociation constants; for Ki: Table 1, read-out: receptor binding affinity (pKI) (converted)
Method: Representative compounds of the present invention were evaluated in in vitro tests for LHRH rat pituitary receptor binding (pKI) and for LH inhibition from rat pituitary cells for antagonist potency (pA2). The tests employed the methods detailed in F. Haviv, et al. J. Med. Chem., 32: 2340-2344 (1989). The receptor binding affinity (pKI) is the negative logarithm of the equilibrium dissociation constants.

Row | SMILES | Ki [nM] | receptor binding affinity (pKI) (Table 1)
1 | CC[C@H]1OC(=O)[C@H](C)[C@@H](O[C@H]2C[C@@](C)(OC)[C@@H](O)[C@H](C)O2)[C@H](C)[C@@H](O[C@@H]2O[C@H](C)C[C@H](N(C)CC3CC(OC)OC3OC)[C@H]2O)[C@](C)(OC)C[C@@H](C)C(=O)[C@H](C)[C@H]2N(CCc3ccc(Cl)c(Cl)c3)C(=O)O[C@]12C (stereo partly shown) [Example 69, 3'-N-Desmethyl-3'-N-[2,5-dimethoxy-3-tetrahydrofurylmethyl]-11-deoxy-11-[carboxy-(3,4-dichlorophenethylamino)]-6-O-methyl-erythromycin A 11,12-(cycliccarbamate)] | 6.17 | –
2 | CC[C@H]1OC(=O)[C@H](C)[C@@H](O[C@H]2C[C@@](C)(OC)[C@@H](O)[C@H](C)O2)[C@H](C)[C@@H](O[C@@H]2O[C@H](C)C[C@H](N(C)CC3CCC3)[C@H]2O)[C@](C)(OC)C[C@@H](C)C(=O)[C@H](C)[C@H]2N(CCc3ccc(Cl)cc3)C(=O)O[C@]12C [Example 19, 3'-N-Desmethyl-3'-N-cyclobutylmethyl-11-deoxy-11-[carboxy-(4-chlorophenethylamino)]-6-O-methyl-erythromycin A 11,12-(cyclic carbamate)] | 1.58 | –
3 | CC[C@H]1OC(=O)[C@H](C)[C@@H](O[C@H]2C[C@@](C)(OC)[C@@H](O)[C@H](C)O2)[C@H](C)[C@@H](O[C@@H]2O[C@H](C)C[C@H](N(C)C3CCCC3)[C@H]2O)[C@](C)(OC)C[C@@H](C)C(=O)[C@H](C)[C@H]2N(CCc3cccc(Cl)c3)C(=O)O[C@]12C [Example 24, 3'-N-Desmethyl-3'-N-cyclopentyl-11-deoxy-11-[carboxy-(3-chlorophenethylamino)]-6-O-methyl-erythromycin A 11,12-(cyclic carbamate)] | 2.75 | –
4 | CC[C@H]1OC(=O)[C@H](C)[C@@H](O[C@H]2C[C@@](C)(OC)[C@@H](O)[C@H](C)O2)[C@H](C)[C@@H](O[C@@H]2O[C@H](C)C[C@H](N(C)Cc3cccc(C)n3)[C@H]2O)[C@](C)(OC)C[C@@H](C)C(=O)[C@H](C)[C@H]2N(CCc3ccc(Cl)c(Cl)c3)C(=O)O[C@]12C [Example 70, 3'-N-Desmethyl-3'-N-[6-methyl-2-pyridylmethyl]-11-deoxy-11-[carboxy-(3,4-dichlorophenethylamino)]-6-O-methyl-erythromycin A 11,12-(cyclic carbamate)] | 5.89 | –
5 | CC[C@H]1OC(=O)[C@H](C)[C@@H](O[C@H]2C[C@@](C)(OC)[C@@H](O)[C@H](C)O2)[C@H](C)[C@@H](O[C@@H]2O[C@H](C)C[C@H](N(C)CC3CC3)[C@H]2O)[C@](C)(OC)C[C@@H](C)C(=O)[C@H](C)[C@H]2N(CCc3ccc(Cl)cc3)C(=O)O[C@]12C [Example 37, 3'-N-Desmethyl-3'-N-(cyclopropylmethyl)-11-deoxy-11-[carboxy-(4-chlorophenethylamino)]-6-O-methyl-erythromycin A 11,12-(cyclic carbamate)] | 9.12 | –
6 | CC[C@H]1OC(=O)[C@H](C)[C@@H](O[C@H]2C[C@@](C)(OC)[C@@H](O)[C@H](C)O2)[C@H](C)[C@@H](O[C@@H]2O[C@H](C)C[C@H](N(C)Cc3ccc(-c4ccc(Cl)cc4)o3)[C@H]2O)[C@](C)(OC)C[C@@H](C)C(=O)[C@H](C)[C@H]2N(CCc3ccc(Cl)c(Cl)c3)C(=O)O[C@]12C [Example 67, 3'-N-Desmethyl-3'-N-[5-(4-chlorophenyl)-2-furylmethyl]-11-deoxy-11-[carboxy-(3,4-dichlorophenethylamino)]-6-O-methyl-erythromycin A 11,12-(cyclic carbamate)] | 7.76 | –
7 | CC[C@H]1OC(=O)[C@H](C)[C@@H](O[C@H]2C[C@@](C)(OC)[C@@H](O)[C@H](C)O2)[C@H](C)[C@@H](O[C@@H]2O[C@H](C)C[C@H](N(C)CCC(C)SC)[C@H]2O)[C@](C)(OC)C[C@@H](C)C(=O)[C@H](C)[C@H]2N(CCc3ccc(F)c(Cl)c3)C(=O)O[C@]12C (stereo partly shown) [Example 50, 3'-N-Desmethyl-3'-N-(3-methylthio)butyl-11-deoxy-11-[carboxy-(3-chloro-4-fluorophenethylamino)]-6-O-methyl-erythromycin A 11,12-(cyclic carbamate)] | 0.977 | –
8 | CCCN(C)[C@H]1C[C@@H](C)O[C@@H](O[C@@H]2[C@@H](C)[C@H](O[C@H]3C[C@@](C)(OC)[C@@H](O)[C@H](C)O3)[C@@H](C)C(=O)O[C@H](CC)[C@@]3(C)OC(=O)N(CCc4ccc5c(c4)OCO5)[C@@H]3[C@@H](C)C(=O)[C@H](C)C[C@@]2(C)OC)[C@@H]1O [Example 14, 3'-N-Desmethyl-3'-N-n-propyl-11-deoxy-11-[carboxy-(3,4-dioxolanophenethylamino)]-6-O-methyl-erythromycin A 11,12-(cyclic carbamate)] | 1.78 | –
9 | CC[C@H]1OC(=O)[C@H](C)[C@@H](O[C@H]2C[C@@](C)(OC)[C@@H](O)[C@H](C)O2)[C@H](C)[C@@H](O[C@@H]2O[C@H](C)C[C@H](N(C)Cc3ccccn3)[C@H]2O)[C@](C)(OC)C[C@@H](C)C(=O)[C@H](C)[C@H]2N(CCc3ccc(F)c(Cl)c3)C(=O)O[C@]12C [Example 47, 3'-N-Desmethyl-3'-N-(2-pyridyl)methyl-11-deoxy-11-[carboxy-(3-chloro-4-fluorophenethylamino)]-6-O-methyl-erythromycin A 11,12-(cyclic carbamate)] | 2.51 | –
10 | CC[C@H]1OC(=O)[C@H](C)[C@@H](O[C@H]2C[C@@](C)(OC)[C@@H](O)[C@H](C)O2)[C@H](C)[C@@H](O[C@@H]2O[C@H](C)C[C@H](N(C)CCCCc3ccncc3)[C@H]2O)[C@](C)(OC)C[C@@H](C)C(=O)[C@H](C)[C@H]2N(CCc3ccc(F)c(Cl)c3)C(=O)O[C@]12C [Example 83, 3'-N-Desmethyl-3'-N-[4-(4-pyridyl)butyl]-11-deoxy-11-[carboxy-(3-chloro-4-fluorophenethylamino)]-6-O-methyl-erythromycin A 11,12-(cyclic carbamate)] | – | 8.46
11 | CC[C@H]1OC(=O)[C@H](C)[C@@H](O[C@H]2C[C@@](C)(OC)[C@@H](O)[C@H](C)O2)[C@H](C)[C@@H](O[C@@H]2O[C@H](C)C[C@H](N(C)CCCCc3ccncc3)[C@H]2O)[C@](C)(OC)C[C@@H](C)C(=O)[C@H](C)[C@H]2N(CCc3ccc(Cl)c(Cl)c3)C(=O)O[C@]12C [Example 78, 3'-N-Desmethyl-3'-N-[4-(4-pyridyl)butyl]-11-deoxy-11-[carboxy-(3,4-dichlorophenethylamino)]-6-O-methyl-erythromycin A 11,12-(cyclic carbamate)] | 7.94 | –
12 | CC[C@H]1OC(=O)[C@H](C)[C@@H](O[C@H]2C[C@@](C)(OC)[C@@H](O)[C@H](C)O2)[C@H](C)[C@@H](O[C@@H]2O[C@H](C)C[C@H](N(C)C(C)CCc3ccc(O)cc3)[C@H]2O)[C@](C)(OC)C[C@@H](C)C(=O)[C@H](C)[C@H]2N(CCc3ccc(F)c(Cl)c3)C(=O)O[C@]12C (stereo partly shown) [Example 86, 3'-N-Desmethyl-3'-N-(1-methyl)[3-(4-hydroxy)phenyl]propyl-11-deoxy-11-[carboxy-(3-chloro-4fluorophenethylamino)]-6-O-methyl-erythromycin A 11,12-(cyclic carbamate)] | 1.78 | –
13 | CC[C@H]1OC(=O)[C@H](C)[C@@H](O[C@H]2C[C@@](C)(OC)[C@@H](O)[C@H](C)O2)[C@H](C)[C@@H](O[C@@H]2O[C@H](C)C[C@H](N(C)C3CCCC3)[C@H]2O)[C@](C)(OC)C[C@@H](C)C(=O)[C@H](C)[C@H]2N(CC3(c4ccc(Cl)c(Cl)c4)CC3)C(=O)O[C@]12C [Example 12, 3'-N-Desmethyl-3'-N-cyclopentyl-11-deoxy-11-[carboxy-(α,α-cyclopropyl-3,4-dichlorophenethylamino)]-6-O-methyl-erythromycin A 11,12-(cycliccarbamate)] | 2.09 | –
14 | CC[C@H]1OC(=O)[C@H](C)[C@@H](O[C@H]2C[C@@](C)(OC)[C@@H](O)[C@H](C)O2)[C@H](C)[C@@H](O[C@@H]2O[C@H](C)C[C@H](N(C)CCc3ccccn3)[C@H]2O)[C@](C)(OC)C[C@@H](C)C(=O)[C@H](C)[C@H]2N(CCc3ccc(Cl)c(Cl)c3)C(=O)O[C@]12C [Example 89, 3'-N-Desmethyl-3'-N-(2-pyridyl)ethyl-11-deoxy-11-[carboxy-(3,4-dichlorophenethylamino)]-6-O-methyl-erythromycin A 11,12-(cyclic carbamate)] | 4.17 | –
15 | CC[C@H]1OC(=O)[C@H](C)[C@@H](O[C@H]2C[C@@](C)(OC)[C@@H](O)[C@H](C)O2)[C@H](C)[C@@H](O[C@@H]2O[C@H](C)C[C@H](N(C)C3CC3)[C@H]2O)[C@](C)(OC)C[C@@H](C)C(=O)[C@H](C)[C@H]2N(CCc3ccc(Cl)c(Cl)c3)C(=O)O[C@]12C [Example 2, 3'-N-Desmethyl-3'-N-cyclopropyl-11-deoxy-11-[carboxy-(3,4-dichlorophenethylamino)]-6-O-methyl-erythromycin A 11,12-(cyclic carbamate)] | 0.575 | –
16 | CC[C@H]1OC(=O)[C@H](C)[C@@H](O[C@H]2C[C@@](C)(OC)[C@@H](O)[C@H](C)O2)[C@H](C)[C@@H](O[C@@H]2O[C@H](C)C[C@H](N(C)Cc3ccco3)[C@H]2O)[C@](C)(OC)C[C@@H](C)C(=O)[C@H](C)[C@H]2N(CCc3ccc(F)c(Cl)c3)C(=O)O[C@]12C [Example 45, 3'-N-Desmethyl-3'-N-(2-furyl)methyl-11-deoxy-11-[carboxy-(3-chloro-4-fluorophenethylamino)]-6-O-methyl-erythromycin A 11,12-(cyclic carbamate)] | 3.55 | –

From US5955440A, “Macrolide LHRH antagonists” (Abbott Laboratories, priority 1998, dated 1999)
